The target in this assay is T1, SCD5 (Homo sapiens, UniProt Q86SK9).
T1 construct: host or cells: S. cerevisiae ole1Δ strain (W303 pdr1Δ pdr3Δ background), plasmid pRS316 with TDH3 promoter and CYC1 terminator
T1 sequence (Q86SK9 1-330): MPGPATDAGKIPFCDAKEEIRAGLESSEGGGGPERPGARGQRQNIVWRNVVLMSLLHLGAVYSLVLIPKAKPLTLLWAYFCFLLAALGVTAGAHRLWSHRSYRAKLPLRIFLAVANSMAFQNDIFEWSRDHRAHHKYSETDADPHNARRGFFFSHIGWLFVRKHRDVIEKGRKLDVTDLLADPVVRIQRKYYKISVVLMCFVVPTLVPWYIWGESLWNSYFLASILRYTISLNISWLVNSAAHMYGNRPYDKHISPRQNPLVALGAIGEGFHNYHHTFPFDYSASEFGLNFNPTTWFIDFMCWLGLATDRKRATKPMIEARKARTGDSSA
As to the kind of experiment: Growth inhibition of humanized yeast strain expressing SCD5 as sole desaturase. It counts as cell-based. The method, then: Strain oleΔ (yeast ole1 deletion mutant) was constructed by deleting OLE1 with NAT-MX6 in BY4741, amplifying the deletion cassette from the genomic DNA of the resulting strain with primers flanking the ORF by 1000 bp upstream and downstream, transforming the resulting deletion cassette into W303 pdr1Δ pdr3Δ, and plating transformants on YPD media containing G418 (200 μg/mL) and nourseothricin ([…]) with 0.01% TWEEN®-20 and 0.5 mM oleic and palmitoleic acids.
The coding sequence of yeast OLE1 was also cloned into this plasmid). These clones were then transformed into the ole1Δ strain and plated on CSM-Ura media (CSM lacking uracil) with 2% glucose (w/v) and independent colonies were isolated and amplified.
All compound profiling experiments were performed using the same basic protocol. Different genetic backgrounds (e.g., gene deletions) or conditions (e.g., addition of oleic and palmitoleic acid) were replaced as indicated below.
Yeast were cultured using standard techniques in complete synthetic media (CSM) and yeast nitrogen base supplemented with 2% (w/v) carbon source (glucose, raffinose, or galactose) to regulate the expression of the toxic disease protein. An initial starter culture was inoculated in 3 mL CSM-Glucose media and incubated overnight in a 30° C. shaker incubator (225 rpm). Saturated morning cultures were then diluted 1:20 in fresh CSM-Raffinose media and grown for 6 h to an OD600 (optical density) of ˜0.4-0.8 at 30° C. with shaking.
Compound administration was performed in two separate steps. First, 15 μL of CSM-Galactose (induces expression of toxic protein) was dispensed into clear 384 well assay plates using a MULTIDROP™ Combi reagent dispenser. […] The cultures described above were then diluted to a 2× concentration (0.03 and 0.08 for alpha-synuclein and ApoE, final ODsoo of 0.015 and 0.04) in CSM-Galactose. For wild-type and Ole1/SCD1/SCD5 plasmid-containing strains, the 2× cell density was 0.02. […] For 96-well assays (FIGS. 1A and 1B), compound dilutions in DMSO were generated in 96 well plates and 1 μL was manually pipetted into 96 well clear bottom assay plates.
For experiments using a plasmid-borne copy of Ole1, SCD1, or SCD5 (FIGS. 3B, 6, and 7), media lacking uracil (SX-Ura, where X is glucose, raffinose, or galactose), was used for all steps of the compound profiling protocol to ensure its maintenance throughout the assay.
After yeast delivery, assay plates were incubated under humidified conditions at 30° C. for 24 to 40 h. ApoE4 rescue experiments were stopped at 24 h, aSyn experiments at 40 h, Ole1 at 24 h, and SCD1/SCD5 at 40 h. The growth of yeast was monitored by reading the ODsoo of each well using a microplate reader (Perkin Elmer EnVision™).

Setting [1] is: humanized yeast strain expressing SCD5.
Setting [2] is: yeast strain expressing human SCD5 as sole desaturase, Table 8.

Each structure is given as a SMILES string. pIC50: −log10 of the molar value.

As a reminder, the pIC50 is the IC50 on a negative log10 scale, so that one unit is a factor of ten. In the case of `CC(C)n1ncc2ccc(-c3noc([C@H]4CC[C@H](NC(=O)OC(C)(C)C)CC4)n3)cc21` [Compound 537], the negative logarithm of the IC50 (pIC50) under setting [1] was below 4.35.
`CC(C)n1ncc2ccc(-c3noc(C4CCN(S(=O)(=O)c5ccccc5Cl)CC4)n3)cc21` [Compound 540] gave a pIC50 under setting [1] below 4.35.
The same measure, in the same setting: the same measure for `CC(=O)N[C@H]1CC[C@H](c2nc(-c3ccc4cnn(C(C)C)c4c3)no2)CC1` [Compound 535]: below 4.35.
For `CC(C)(C)OC(=O)N1CCC(c2noc(-c3ccnc(N4CCC(F)(F)C4)c3)n2)CC1` [Compound 1200], under setting [2], the pIC50 was 6.68.
With `CC(C)n1ncc2ccc(-c3noc(N4CCN(C(=O)OCC(F)(F)F)CC4)n3)cc21` [Compound 593], the pIC50 under setting [1] was below 4.35.
Under setting [1], `Cc1nn(C)c2cc(-c3noc(C4CCN(c5nc(C(C)C)no5)CC4)n3)ccc12` [Compound 581] showed a pIC50 below 4.35.
The same measure, in the same setting: the value for `N#Cc1cccc(N2C[C@@H](C(=O)N3CCC(c4nc(-c5ccc6cnn(C7COC7)c6c5)no4)CC3)CC2=O)c1` [Compound 599] was below 4.35; that for `CC(C)n1ncc2ccc(-c3noc(C4CCN(C(=O)c5ccc(Cl)cc5F)CC4)n3)cc21` [Compound 533] was 5.48; that for `CC(C)n1ncc2ccc(-c3noc(C4CCN(C(=O)c5ccccc5F)CC4)n3)cc21` [Compound 532] was 5.67.
Same read-out and setting: the same measure for `N#Cc1cccc(N2C[C@H](C(=O)N3CCC(c4nc(-c5ccc6cnn(C7COC7)c6c5)no4)CC3)CC2=O)c1` [Compound 600]: below 4.35; for `COC(=O)N1C[C@H]2CN(c3nc(-c4ccc5cnn(C(C)C)c5c4)no3)C[C@@H]2C1` [Compound 568]: below 4.35.
Turning to `CC(C)C(=O)N1CCC(c2cc(-c3cc4c(cn3)cnn4C3COC3)on2)CC1` [Compound 1226], under setting [2], the pIC50 is 7.70.
Still for that read-out and setting: the same measure for `COC(=O)N1CCC(c2noc(-c3cnnc(C4CCOC4)c3)n2)CC1` (stereo not drawn) [Compound 1250]: 5.00.
Under setting [1], `CC(C)OC(=O)N1CCC(c2nc(-c3ccc4oc(=O)n(C(C)C)c4c3)no2)CC1` [Compound 507] had a pIC50 of 5.61.
`CC(C)(C)OC(=O)N1CCC(c2noc(-c3ccc(C#N)c(N4CCOCC4)c3)n2)CC1` [Compound 1290] showed a pIC50 under setting [2] of 6.28.
For `O=C(CC1CC1)N1CCC(c2nc(-c3ccc4cnn(C5COC5)c4c3)no2)CC1` [Compound 558], the pIC50 under setting [1] was 5.97.
As for `CC1(OC(=O)N2CCC(c3noc(-c4ccnc(-c5cnoc5)c4)n3)CC2)CC1` [Compound 1220], the pIC50 under setting [2] is 7.00.
The compound `CC(C)n1ncc2ccc(-c3noc([C@H]4CC[C@@H](N)CC4)n3)cc21` [Compound 536] gave a pIC50 under setting [1] below 4.35.
`O=C(C1CCC1)N1CCC(c2noc(-c3cc(C4CCOC4)c(F)cn3)n2)CC1` (stereo not drawn) [Compound 1297] gave a pIC50 under setting [2] of 6.80.
The same measure, in the same setting: the value for `CC(C)(C)OC(=O)N1CCC(c2noc(-c3ccc(F)c(N4CCOC5(CC5)C4)c3)n2)CC1` [Compound 1303] was 7.30.
`CC(C)n1ncc2ccc(-c3noc(N4C[C@H]5CN(C(=O)CC(C)(C)C)C[C@H]5C4)n3)cc21` [Compound 497] gave a pIC50 under setting [1] of 4.95.
In the case of `CC(C)n1ncc2ccc(-c3noc(N4C[C@@H]5CNC[C@H]5C4)n3)cc21` [Compound 530], the pIC50 under setting [1] is below 4.35.
As for `CC(C)(C)OC(=O)N1CCC(c2cc(-c3cnc4cnn(C5COC5)c4c3)on2)CC1` [Compound 1225], the pIC50 under setting [2] is 6.92.
Still for that read-out and setting: the same measure for `COC(=O)N1CCC(c2noc(N3CCc4cnn(C(C)C)c4C3)n2)CC1` [Compound 1260]: 6.60.
Still for that read-out and setting: the value for `O=C(OC1CCC1)N1CCC(c2noc(-c3ccc(=O)n(C4COC4)c3)n2)CC1` [Compound 1309] was 5.99.
`CC(C)n1ncc2ccc(-c3noc(C4CCN(C(=O)c5ccc(Cl)c(F)c5)CC4)n3)cc21` [Compound 541]: under setting [1], the pIC50 is below 4.35.
The compound `COC(=O)N1CCC(c2nc(-c3ccnc(C4CCOC4)c3)no2)CC1` (stereo not drawn) [Compound 1230] gave a pIC50 under setting [2] of 5.16.
Compound `Cc1nn(C)c2cc(-c3noc([C@@H]4CCN(C(=O)CNC(=O)c5ccccc5)CC4(F)F)n3)ccc12` [Compound 577] showed a pIC50 under setting [1] below 4.35.
Same read-out and setting: the value for `CC(C)n1ncc2ccc(-c3noc(C4CCN(C(=O)[C@@H]5CC(=O)N(c6cccc(C#N)c6)C5)CC4)n3)cc21` [Compound 528] was below 4.35.
Compound `O=C(OC1CCC1)N1CCC(c2noc(-c3ccn(C4COC4)c(=O)c3)n2)CC1` [Compound 1292] showed a pIC50 under setting [2] of 4.82.
`CC(C)n1ncc2ccc(-c3noc(C4CCN(C(=O)c5cccs5)CC4)n3)cc21` [Compound 574]: the pIC50 under setting [1] was 5.64.
The compound `CC1(OC(=O)N2CCC(c3noc(-c4ccnc(-c5ccon5)c4)n3)CC2)CC1` [Compound 1306] gave a pIC50 under setting [2] of 5.27.
`CC(C)n1ncc2ccc(-c3noc(C4CCN(C(=O)c5ccc(Cl)cn5)CC4)n3)cc21` [Compound 586] gave a pIC50 under setting [1] of 5.42.
Same read-out and setting: the value for `CC1(OC(=O)N2CCC(c3nc(-c4ccc5cnn(C6COC6)c5c4)no3)CC2)CC1` [Compound 576] was 7.55.
Still for that read-out and setting: the value for `CC(C)N1C(=O)CCc2ccc(-c3noc(C4CCN(C(=O)OC(C)(C)C)CC4)n3)cc21` [Compound 572] was 4.82.
Turning to `O=C(OC1CCC1)N1CCC(c2noc(-c3cc(C4CCOC4)ncn3)n2)CC1` (stereo not drawn) [Compound 1312], under setting [2], the pIC50 was 7.70.
On the same count and under the same terms, the value for `CC(C)(C)OC(=O)N1CCC(c2noc(-c3ccnc(-c4cnco4)c3)n2)CC1` [Compound 1245] was 6.24.
`CC(C)n1ncc2ccc(-c3nc(C4CCN(C(=O)c5ccccn5)CC4)no3)cc21` [Compound 499] gave a pIC50 under setting [1] of 5.96.
For `CC1CN(c2cc(-c3nc(C4CCN(C(=O)OC(C)(C)C)CC4)no3)ccc2F)CC(C)O1` (stereo not drawn) [Compound 1282], the pIC50 under setting [2] is 6.66.
In turn, `CC(C)CS(=O)(=O)N1CCC(c2nc(-c3ccc4cnn(C(C)C)c4c3)no2)CC1` [Compound 565] had a pIC50 under setting [1] below 4.35.
Same read-out and setting: the same measure for `CC(C)n1ncc2ccc(N3CC4(CCN(C(=O)c5ccccc5Cl)CC4)C3)cc21` [Compound 534]: 4.43.
On the same count and under the same terms, the same measure for `O=C(c1ccccc1)N1CCC(c2nc(-c3ccc4cnn(C5COC5)c4c3)no2)CC1` [Compound 564]: 5.37; for `C[C@@H](O)C(=O)N1CCC(c2nc(-c3ccc4cnn(C5COC5)c4c3)no2)CC1` [Compound 597]: below 4.35.
In turn, `CC1(OC(=O)N2CCC(c3noc(-c4cccc(C5CCOC5)n4)n3)CC2)CC1` (stereo not drawn) [Compound 1197] showed a pIC50 under setting [2] of 4.75.
Take `CC(C)n1ncc2ccc(-c3noc(N4CC5(CCN(C(=O)OC(C)(C)C)CC5)C4)n3)cc21` [Compound 555]: the pIC50 under setting [1] was below 4.35.
In turn, `O=C(C1CCC1)N1CCC(c2noc(-c3cc(C4CCOC4)ccn3)n2)CC1` (stereo not drawn) [Compound 1285] had a pIC50 under setting [2] of 6.05.
Regarding `CC(C)n1ncc2ccc(-c3noc(C4CCN(C(=O)c5cscn5)CC4)n3)cc21` [Compound 573], under setting [1], the pIC50 was 5.25.
Turning to `O=C(N1CCC(c2nc(-c3ccnc(C4CCOC4)c3)no2)CC1)C1(F)CC1` (stereo not drawn) [Compound 1229], the pIC50 under setting [2] was 5.82.
Same read-out and setting: the same measure for `O=C(C1CC1)N1CCC(c2noc(-c3ccnc(O[C@@H]4CCOC4)c3)n2)CC1` [Compound 1255]: 5.73; for `O=C(C1CC1)N1CCC(c2noc(-c3cc(C4CCOC4)ccn3)n2)CC1` (stereo not drawn) [Compound 1278]: 5.56.
`CC(C)n1ncc2ccc(-c3noc(C4CCN(C(=O)c5ccc(F)cc5)CC4)n3)cc21` [Compound 544] gave a pIC50 under setting [1] of 5.00.

(Values after patent publication US11873298B2, “Compounds and uses thereof” (JANSSEN PHARMACEUTICA NV, priority 2017, dated 2024).)
